# Laboratory results: patent US20100083405A1, “Method For Controlling Seed Germination In Non-Dormant Seeds And Use Thereof” (priority 2008, published 2010)
# T1: HA-ABI5, Q9SJN0
# T1 chain: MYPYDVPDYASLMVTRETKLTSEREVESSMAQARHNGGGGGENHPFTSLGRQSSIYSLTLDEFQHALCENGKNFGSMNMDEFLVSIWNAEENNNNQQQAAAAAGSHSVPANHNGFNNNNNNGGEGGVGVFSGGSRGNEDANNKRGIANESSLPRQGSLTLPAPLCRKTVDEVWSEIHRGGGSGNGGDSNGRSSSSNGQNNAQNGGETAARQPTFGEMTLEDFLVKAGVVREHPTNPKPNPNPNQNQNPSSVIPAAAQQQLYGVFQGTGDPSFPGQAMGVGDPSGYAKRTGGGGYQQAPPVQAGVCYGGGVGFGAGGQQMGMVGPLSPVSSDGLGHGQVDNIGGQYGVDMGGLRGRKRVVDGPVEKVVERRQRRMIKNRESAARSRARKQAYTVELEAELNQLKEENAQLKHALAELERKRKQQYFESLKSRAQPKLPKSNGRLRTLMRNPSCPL
# Tests used:
# ABI5 [1] = assay: ABI5 mRNA and protein levels (Northern and Western blot) in WT seeds; type: in vivo, Arabidopsis
# Experimental: Total RNA extraction was performed as described by Vicient and Delseny, 1999, Anal. Biochem., 268, 412-413. Northern blot hybridizations were by standard procedures; RNA immobilized on membranes was stained with methylene blue and used as a loading control (Sambrook et al., 1989, above). For ABI5, full length ORF DNA probe (SEQ ID NO: 1) were amplified from cDNA with 5′[…] (SEQ ID NO: 8) 5′ […] (SEQ ID NO: 9).
# The mRNA and protein expression of ABI5 was characterized in WT (Columbia ecotype) seeds at different times after their imbibition.
# Under normal conditions, ABI5 mRNA and protein levels decreased from peak levels in WT dry seeds (DS) to undetectable levels 24 h to 48 h after imbibition as shown respectively by Northern blot (2 μg of total RNA per lane) and Western blot analyses (10 μg of total protein per lane), where protein extracts were stained with red Ponceau prior to incubation with antibodies against ABI5 (Ponceau) (FIGS. 2A and 2B) (Lopez-Molina et al., 2001, above).
# HA-ABI5 [2] = assay: HA-ABI5 mobility/phosphorylation (Western blot) in WT/35S::HA-ABI5 seeds; type: in vivo, Arabidopsis
# Experimental: (§1) The methods used were as described in Lopez-Molina et al., 2001, above.
# Thus, low GA levels also stimulate ABI5 activity and phosphorylation. […] An antibody to HA was used to reveal HA-ABI5 protein. λ phosphatase was inactivated by heat (65° C. for 20 min).
# WT seed = assay: Germination assay, WT seeds; type: in vivo, Arabidopsis; conditions: low PAC concentrations (0.125 μM)
# Text: (§2) Wild type (WT) Arabidopsis (Columbia ecotype) was used. The transgenic Arabidopsis line (Ler ecotype) constitutively overexpressing and accumulating ABI5 protein fused to hemagglutinin (HA) peptide tag (referred to as WT/35S::HA-ABI5 plants) was generated as described in Lopez-Molina et al., 2001, above. Transgenic Arabidopsis lines were generated using the Agrobacterium tumefaciens vacuum-infiltration method (Bechtold and Pelletier, 1998, Methods Mol. Biol. 82, 259-266). Seeds (T1) from infiltrated plants were plated in selection medium as described (Zuo et al., 2000, above; Lopez-Molina et al., 2001, above). Non-dormant seeds are used in absence of seed stratification procedure. The infiltration in the plant ovule is performed following the standard “Floral Dip” (Arabidopsis protocol Edited by J M Martinez-Zapater and Julio Salina. Humana Press, “In Planta Agrobacterium-Mediated Transformation of Adult Arabidopsis thaliana Plants by Vacuum infiltration”, Page 259).
# (§3) When seeds are sown under “normal conditions” it refers to conditions where seeds are imbibed in a standard germination medium and provided with light (germination assay condition below). “ABA conditions” and “low GA conditions” are respectively conditions where ABA (e.g. 5 μM) and paclobutrazol (e.g. 5 μM, PAC), an inhibitor of GA synthesis, are added to the medium. […]
# WT/35S::HA-ABI5 seeds [3] = assay: Germination assay, WT/35S::HA-ABI5 seeds; type: in vivo, Arabidopsis
# Text: as §2, §3
# HA-PKABA1 = HA-PKABA1 protein levels (Western blot) in seeds transformed with ind::HA-PKABA1; type: in vivo, Arabidopsis; conditions: 50 μM 17β-estradiol, 48 h after seed imbibition, normal conditions
# Text: The first primer contains an XhoI site and the HA sequence (MYPYDVPDYASL (SEQ ID NO: 5) of SEQ ID NO:10), while the second contains a SpeI site. Both restriction sites were used for cloning into a plasmid pER8 (AN AF309825) such as described in Zuo et al., 2000, Plant J., 24, 265-273. The resulting ind::HA-PKABA1 binary vector was then transformed into previously described WT/35S::HA-ABI5 line (Zuo et al., 2000, above; Lopez-Molina et al., 2001, above). As a negative control, WT plants were transformed with the same ind::HA-PKABA1 construct.
# [4] = test system: WT/35S::HA-ABI5 plants transformed with the ind::HA-PKABA1 DNA construct; assay: Germination assay, WT/35S::HA-ABI5 transformed with ind::HA-PKABA1; type: in vivo, Arabidopsis
# Experimental: All seed batches compared in this study were harvested on the same day from plants grown side by side (i.e. identical environmental conditions). Dry siliques were obtained about 8 weeks after planting and left for a further 4 weeks at room temperature prior to seed harvesting. Seeds were then permanently stored at 4° C. Seeds obtained in this manner lacked dormancy. A minimum of three independently grown seed batches were used for measuring percent TR and ER. For TR and ER assays, seeds were surface sterilized as described in Lopez-Molina and Chua, 2000, above, and sown in plates with MS medium containing 0.8% (wt/vol.) Bacto-Agar (Applichem). Plates were incubated in a climate-controlled room (20-25° C., 16 h light/day, light intensity 80 ME/m^2/s, humidity 70%). Between 100 and 300 seeds were examined with a Stemi 2000 (Zeiss) stereomicroscope and photographed with a high-resolution digital camera (Canon Power G6, 7.1 Megapixels) at different times of seed imbibition. Photographs were enlarged electronically for measurement of TR and ER.
# The first primer contains an XhoI site and the HA sequence (MYPYDVPDYASL (SEQ ID NO: 5) of SEQ ID NO:10), while the second contains a SpeI site. Both restriction sites were used for cloning into a plasmid pER8 (AN AF309825) such as described in Zuo et al., 2000, Plant J., 24, 265-273. […]
# HA-ABI5 [5] = conditions: low ABA concentration 0.5 μM; cited from earlier work
# WT/35S::HA-ABI5 seeds [6] = conditions: low ABA concentration 0.5 μM; cited from earlier work
# HA-ABI5 [7] = assay: HA-ABI5 mobility/phosphorylation (Western blot) in WT/35S::HA-ABI5 lines transformed with ind::HA-PKABA1; type: in vivo, Arabidopsis; conditions: excess GA in the medium, inducer present
# Experimental: as §1
# The mobility differences of HA-ABI5 protein isolated from WT/35S::HA-ABI5 lines transformed with a ind::HA-PKABA1 DNA construct are analyzed by Western blot under the indicated germination conditions. As observed upon ABA treatment, induction of HA-PKABA1 protein triggered ABI5 phosphorylation, detected as a slower ABI5 protein mobility, which could be eliminated upon phosphatase treatment (FIG. 4B).
# ABI5 [8] = assay: ABI5 protein levels (Western blot) in gal-3 seeds; type: in vivo, Arabidopsis; conditions: gal-3 seeds treated with GA, as early as 48 hours after imbibition
# HA-ABI5, Q9SJN0 = biological target: T1, HA-ABI5, Q9SJN0
# [9] = GA 50 μM added to the germination medium with ABA
molecule,measurement,setting,value
"CC(C)(C)[C@@H](O)[C@@H](Cc1ccc(Cl)cc1)n1cncn1 (racemic) [PAC, paclobutrazol]",ABI5 expression (mRNA and protein),"ABI5 [1]; 5 μM PAC, up to 96 hours after imbibition",increased and maintained ABI5 expression
same,HA-ABI5 migration in SDS-PAGE gels,HA-ABI5 [2]; PAC 0.125 μM,slower HA-ABI5 migration
same,WT seed germination,WT seed,do not prevent WT seed germination
same,seeds germinated,WT/35S::HA-ABI5 seeds [3]; after one week on 0.125 μM PAC,less than 20%
C[C@]12CC[C@@H]3c4ccc(O)cc4CC[C@H]3[C@@H]1CC[C@@H]2O [17β-estradiol],HA-PKABA1 protein levels,HA-PKABA1,could be detected only in presence of the inducer
same,germination after removal of the inducer,[4]; 24 h to 56 h upon transfer to medium without inducer (50 μM before),100%
"CC1=CC(=O)CC(C)(C)[C@@]1(O)/C=C/C(C)=C\C(=O)O [ABA, abscisic acid]",ABI5 mRNA and protein expression,"ABI5 [1]; ABA 5 μM, after imbibition",stimulated
same,HA-ABI5 phosphorylation,HA-ABI5 [5],triggered HA-ABI5 phosphorylation
same,germination response,WT/35S::HA-ABI5 seeds [6],hypersensitive responses
gibberellins [GA],HA-PKABA1-dependent phosphorylation of ABI5,HA-ABI5 [7],did not prevent HA-PKABA1-dependent phosphorylation of ABI5
same,inducer-imposed germination arrest,"[4]; additional GA 50 μM in the medium, inducer present",did not counteract the inducer-imposed arrest
same,ABA-dependent ABI5 phosphorylation,HA-ABI5 [2]; [9],did not alter ABA-dependent ABI5 phosphorylation
same,ABI5 protein,ABI5 [8],could not be detected
same,repression of seed germination imposed by ABA,WT/35S::HA-ABI5 seeds [3]; [9],did not overcome the repression of seed germination imposed by ABA
HA-PKABA1 (protein) MYPYDVPDYASLMDRYEVVRDIGSGNFGVAKLVRDVRTREHFAVKFIERGHKIDEHVQREIMNHRSLKHPNIIRFKEVVLTPTHLAIVMEYASGGELFQRICNAGRFSEDEGRFFFQQLISGVSYCHSMQVCHRDLKLENTLLDGSVAPRLKICDFGYSKSSVLHSQPKSTVGTPAYIAPEVLSRREYDGKVADVWSCGVTLYVMLVGAYPFEDPDEPRNFRKTIARILSVQYSVPDYVRVSMDCIHLLSRIFVGNPQQRITIPEIKNHPWFLKRLPVEMTDEYQRGMQLADMNTPSQSLEEAMAIIQEAQKPGHNALGLAGQVACLGSMDLDDIDFDVDDIDIENSGDFVCPL,"ABI5 phosphorylation in planta, seen as slower HA-ABI5 mobility on Western blot (SDS-PAGE), sensitive to phosphatase","HA-ABI5, Q9SJN0","induction of HA-PKABA1 protein triggered ABI5 phosphorylation, detected as a slower ABI5 protein mobility, which could be eliminated upon phosphatase treatment"
